Here are results for one compound from patent US20200261520A1, “Combination Therapies of Hepatitis B Virus (HBV)-infected individuals using Parapoxvirus Ovis (PPVO) and at Least one Further Antiviral Drug” (priority 2017, published 2020).

Series [1] concerns woodchuck hepatitis virus (WHV). The series can be described thus: T-cell proliferative responses of PBMCs to WHV peptides (CellTiter-Glo, stimulation index). It counts as in vivo. Conditions: chronic WHV carrier woodchucks; fold change from baseline at T0. As to the method:
In woodchucks, over a 36-week period, AIC649 was administered i.v. and then i.m., alone or in combination with an initial 12 weeks of the direct acting antiviral, ETV, given orally.
The efficacy of AIC649 monotherapy, ETV monotherapy, or combination AIC649+ETV therapy was compared to a placebo control group (N=5 animals/group). […] Daily observations, changes in body weight and body temperatures, changes in hematology and clinical chemistry, as well as necropsy and histopathology were assessed for determination of safety.
PBMCs were isolated from whole blood and cultured for 5 days in the presence of DMSO (negative control), lipopolysaccharide (LPS, positive control), recombinant human IL-2 (positive control), or pools of peptides covering the entire WHcAg, WHsAg, or WHxAg, respectively. Using the CellTiter-Glo® assay, the number of viable cells in each test well was assessed using a luminescent signal proportional to the amount of ATP present, and thus to the number of viable cells. Cultures were assessed after 5 days and a stimulation index (SI) was derived relative to the negative controls as a measure of T-cell responses to specific antigens/stimuli:
SI=Test luminescence/negative control luminescence
For orientation: In ATP-based viability assays light output follows the ATP content of the culture.

The nature of series [2]: Safety assessment (mortality, observations, body weight, temperature, hematology, clinical chemistry, necropsy, histopathology). In kind it is in vivo, woodchuck. The settings on record: n=5/group at start of experiment; week of death. As to the method:
Treatment-induced changes in viremia, antigenemia, immunological parameters, as well as the induction of WHsAg antibody seroconversion were evaluated for determination of antiviral effects. Daily observations, changes in body weight and body temperatures, changes in hematology and clinical chemistry, as well as necropsy and histopathology were assessed for determination of safety.
The efficacy of AIC649 monotherapy, ETV monotherapy, or combination AIC649+ETV therapy was compared to a placebo control group (N=5 animals/group). […] Daily observations, changes in body weight and body temperatures, changes in hematology and clinical chemistry, as well as necropsy and histopathology were assessed for determination of safety. […]
Mortality was assessed daily for all animals.
Body temperature and weight assessments were performed together, weekly. The animal identification number and body temperature were read from a microchip implanted in the dorsal base of the tail using a hand-held chip reader (Biomedical Data Systems Inc.). […]
Uncoagulated whole blood was collected in EDTA tubes. […] Samples were analyzed the following day using an automated cell counter system (coulter) with program settings for woodchucks (Bellezza, C. A., et al., 2002, Elsevier. p. 309-328). […]

Each structure is given as a SMILES string.

For `C=C1[C@H](CO)[C@@H](O)C[C@@H]1n1cnc2c(=O)[nH]c(N)nc21` [ETV, Entecavir], the “cell mediated immune responses (PBMCs stimulated with WHsAg peptides)” value in series [1] is listed as “not”. The deaths in group in series [2] is on record as 1 animal each at week 4, 14, 21, 29.
